ChEMBL document CHEMBL1909046, “DrugMatrix in vitro pharmacology data”

Tests used:
[1] = biological target: T1, C-C chemokine receptor type 4 (Homo sapiens, UniProt P51679); assay type: cell membranes, Membrane; details: chem-1; note: in other assays of this panel Not Active means under 50% inhibition at 10 µM
T1 sequence (P51679 whole entry): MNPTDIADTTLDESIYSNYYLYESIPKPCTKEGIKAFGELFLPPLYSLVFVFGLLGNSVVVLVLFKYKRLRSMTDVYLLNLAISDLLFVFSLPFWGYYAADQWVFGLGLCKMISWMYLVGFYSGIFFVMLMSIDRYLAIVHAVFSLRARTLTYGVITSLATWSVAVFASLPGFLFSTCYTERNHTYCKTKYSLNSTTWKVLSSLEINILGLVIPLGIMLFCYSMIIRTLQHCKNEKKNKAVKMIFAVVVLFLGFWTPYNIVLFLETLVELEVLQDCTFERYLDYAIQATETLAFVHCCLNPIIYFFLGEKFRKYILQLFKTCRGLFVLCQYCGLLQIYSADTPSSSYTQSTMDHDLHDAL

[2] = biological target: T2, Glucocorticoid receptor (Homo sapiens, UniProt P04150); details: hela s3; note: in other assays of this panel Not Active means under 50% inhibition at 10 µM
T2 sequence (P04150 whole entry): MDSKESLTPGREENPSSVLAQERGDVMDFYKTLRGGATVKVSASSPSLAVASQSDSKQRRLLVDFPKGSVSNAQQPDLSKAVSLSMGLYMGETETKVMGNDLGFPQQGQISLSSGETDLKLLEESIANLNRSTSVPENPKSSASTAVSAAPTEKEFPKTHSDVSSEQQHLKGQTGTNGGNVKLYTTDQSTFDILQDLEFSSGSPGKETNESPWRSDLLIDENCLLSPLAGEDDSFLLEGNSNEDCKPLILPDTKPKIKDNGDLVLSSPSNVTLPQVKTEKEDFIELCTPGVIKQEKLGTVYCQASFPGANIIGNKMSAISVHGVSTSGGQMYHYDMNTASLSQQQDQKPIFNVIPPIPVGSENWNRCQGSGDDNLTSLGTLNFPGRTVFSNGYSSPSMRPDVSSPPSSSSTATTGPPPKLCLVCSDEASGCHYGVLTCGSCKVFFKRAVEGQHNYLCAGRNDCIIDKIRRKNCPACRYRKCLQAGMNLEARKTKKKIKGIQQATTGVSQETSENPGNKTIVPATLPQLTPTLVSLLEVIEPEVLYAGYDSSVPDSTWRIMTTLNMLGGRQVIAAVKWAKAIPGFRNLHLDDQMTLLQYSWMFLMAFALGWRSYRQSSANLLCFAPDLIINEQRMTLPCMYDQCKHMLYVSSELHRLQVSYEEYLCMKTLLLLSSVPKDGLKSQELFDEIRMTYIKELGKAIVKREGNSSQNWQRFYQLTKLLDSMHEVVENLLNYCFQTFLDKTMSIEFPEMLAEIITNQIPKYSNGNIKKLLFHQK

[3] = biological target: C-C chemokine receptor type 5 (Homo sapiens, UniProt P51681); assay type: cell membranes, Membrane; details: hek293; note: in other assays of this panel Not Active means under 50% inhibition at 10 µM
[4] = biological target: D(3) dopamine receptor (Homo sapiens, UniProt P35462); test: DRUGMATRIX: Dopamine D3 radioligand binding (ligand: [3H] Spiperone); assay type: cell membranes, CHO, Membrane; details: cho
[5] = biological target: Cytochrome P450 2E1 (Homo sapiens, UniProt P05181); details: bti-tn-5b1-4; note: in other assays of this panel Not Active means under 50% inhibition at 10 µM
[6] = biological target: T3, Progesterone receptor (Bos taurus, UniProt Q690N0); test: DRUGMATRIX: Progesterone radioligand binding (ligand: [3H] R-5020); assay type: tissue-based, Uterus; details: Not Active = under 50% inhibition at 10 µM
T3 sequence (Q690N0 whole entry): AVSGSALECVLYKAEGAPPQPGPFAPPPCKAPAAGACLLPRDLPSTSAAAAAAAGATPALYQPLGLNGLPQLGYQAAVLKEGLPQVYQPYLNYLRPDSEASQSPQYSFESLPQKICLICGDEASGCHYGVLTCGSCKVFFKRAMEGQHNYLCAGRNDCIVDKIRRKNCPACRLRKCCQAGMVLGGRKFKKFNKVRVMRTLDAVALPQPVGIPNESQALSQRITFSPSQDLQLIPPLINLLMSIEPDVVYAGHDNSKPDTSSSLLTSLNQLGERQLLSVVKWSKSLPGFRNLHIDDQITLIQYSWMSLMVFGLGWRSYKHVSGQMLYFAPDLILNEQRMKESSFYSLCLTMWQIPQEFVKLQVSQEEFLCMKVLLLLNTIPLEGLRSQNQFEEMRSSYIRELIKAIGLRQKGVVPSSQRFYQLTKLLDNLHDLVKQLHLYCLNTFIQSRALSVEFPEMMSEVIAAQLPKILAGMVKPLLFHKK

[7] = biological target: Vasopressin V1a receptor (Homo sapiens, UniProt P37288); assay type: cell membranes, Membrane; details: hek293; note: in other assays of this panel Not Active means under 50% inhibition at 10 µM
[8] = biological target: Glycine receptor (Rattus norvegicus, UniProt P22771+P24524+P07727+P20781); assay type: cell membranes, Wistar, Spinal cord, Membrane; note: in other assays of this panel Not Active means under 50% inhibition at 10 µM

Sequence of C-C chemokine receptor type 5 (P51681 whole entry): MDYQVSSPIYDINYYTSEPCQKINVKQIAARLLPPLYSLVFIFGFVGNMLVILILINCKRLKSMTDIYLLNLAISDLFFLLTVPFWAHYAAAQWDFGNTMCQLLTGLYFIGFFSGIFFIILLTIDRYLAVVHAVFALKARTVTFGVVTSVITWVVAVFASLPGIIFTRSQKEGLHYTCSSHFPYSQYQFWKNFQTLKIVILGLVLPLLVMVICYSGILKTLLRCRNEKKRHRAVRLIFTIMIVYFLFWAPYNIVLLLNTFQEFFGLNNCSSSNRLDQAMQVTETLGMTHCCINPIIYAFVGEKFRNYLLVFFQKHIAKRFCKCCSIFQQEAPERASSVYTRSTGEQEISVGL
Sequence of D(3) dopamine receptor (P35462 whole entry): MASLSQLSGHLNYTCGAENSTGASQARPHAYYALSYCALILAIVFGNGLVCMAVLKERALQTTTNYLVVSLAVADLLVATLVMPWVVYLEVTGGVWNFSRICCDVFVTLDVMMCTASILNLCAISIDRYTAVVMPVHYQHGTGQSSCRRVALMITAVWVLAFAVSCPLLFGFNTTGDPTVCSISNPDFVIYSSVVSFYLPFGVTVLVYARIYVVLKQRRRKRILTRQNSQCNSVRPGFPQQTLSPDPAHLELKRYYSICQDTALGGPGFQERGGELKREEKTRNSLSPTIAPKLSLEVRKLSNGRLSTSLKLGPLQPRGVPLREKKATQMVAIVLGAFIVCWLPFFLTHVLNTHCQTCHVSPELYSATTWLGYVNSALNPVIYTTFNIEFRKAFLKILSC
Sequence of Vasopressin V1a receptor (P37288 whole entry): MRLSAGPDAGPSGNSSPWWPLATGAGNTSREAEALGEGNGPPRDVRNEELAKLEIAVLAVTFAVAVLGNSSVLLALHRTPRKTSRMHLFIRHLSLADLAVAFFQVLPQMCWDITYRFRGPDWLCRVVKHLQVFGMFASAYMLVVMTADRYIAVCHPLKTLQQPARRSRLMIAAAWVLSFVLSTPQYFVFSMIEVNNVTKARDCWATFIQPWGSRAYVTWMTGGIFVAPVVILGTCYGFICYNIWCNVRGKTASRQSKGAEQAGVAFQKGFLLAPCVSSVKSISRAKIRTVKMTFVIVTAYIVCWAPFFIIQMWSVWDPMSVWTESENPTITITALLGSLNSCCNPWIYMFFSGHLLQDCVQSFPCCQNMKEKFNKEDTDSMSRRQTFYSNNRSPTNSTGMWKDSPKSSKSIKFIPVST
Sequence of Cytochrome P450 2E1 (P05181 whole entry): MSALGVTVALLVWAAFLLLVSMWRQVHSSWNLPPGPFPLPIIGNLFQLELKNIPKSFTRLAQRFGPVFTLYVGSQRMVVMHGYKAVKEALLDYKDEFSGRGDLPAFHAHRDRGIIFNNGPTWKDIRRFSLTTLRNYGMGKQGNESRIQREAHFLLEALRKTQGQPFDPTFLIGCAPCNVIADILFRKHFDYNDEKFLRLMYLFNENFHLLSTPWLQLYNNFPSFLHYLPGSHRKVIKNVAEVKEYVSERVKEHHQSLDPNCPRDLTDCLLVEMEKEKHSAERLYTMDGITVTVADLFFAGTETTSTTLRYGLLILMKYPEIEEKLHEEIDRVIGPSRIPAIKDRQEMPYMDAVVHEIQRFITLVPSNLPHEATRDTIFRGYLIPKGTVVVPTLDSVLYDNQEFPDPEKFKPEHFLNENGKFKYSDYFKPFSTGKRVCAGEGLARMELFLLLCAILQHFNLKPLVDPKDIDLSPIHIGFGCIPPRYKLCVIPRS

Row | SMILES | IC50 [1] | IC50 [2] | IC50 [3] | IC50 [4] | IC50 [5] | Ki [5] | IC50 [6] | IC50 [7] | IC50 [8] | IC50 ([6]; read-out: IC50) [nM] | Ki ([6]; read-out: Ki) [nM]
1 | Nn1nnc2ccccc21 | Not Active | Not Active | Not Active | Not Active | Not Active | Not Active | Not Active | Not Active | Not Active | – | –
2 | CC[C@]1(O)CC[C@H]2[C@@H]3CCC4=CCCC[C@@H]4[C@H]3CC[C@@]21C | Not Active | Not Active | Not Active | Not Active | Not Active | Not Active | – | Not Active | Not Active | 201 | 26
3 | N[C@@H](Cc1ccc(F)cc1)C(=O)O | Not Active | Not Active | Not Active | Not Active | – | – | Not Active | Not Active | Not Active | – | –
4 | CCOC(=O)[C@H](CCc1ccccc1)N[C@@H](C)C(=O)N1Cc2ccccc2C[C@H]1C(=O)O | Not Active | Not Active | Not Active | Not Active | Not Active | Not Active | Not Active | Not Active | Not Active | – | –
5 | O=C(c1ccccc1Cl)N1CCC(Cc2ccccc2)CC1 | Not Active | Not Active | Not Active | Not Active | Not Active | Not Active | Not Active | Not Active | Not Active | – | –
6 | CCOC(=O)[C@H](CCc1ccccc1)N[C@@H](C)C(=O)N1CCC[C@H]1C(=O)O | Not Active | Not Active | Not Active | Not Active | Not Active | Not Active | – | Not Active | Not Active | – | –
7 | Clc1cc2c(cc1Cl)Oc1cc(Cl)c(Cl)cc1O2 [2,3,7,8-TETRACHLORODIBENZO-P-DIOXIN] | Not Active | Not Active | Not Active | Not Active | Not Active | Not Active | Not Active | Not Active | Not Active | – | –
8 | C=C1/C(=C\C=C2/CCC[C@]3(C)[C@@H]([C@H](C)CCCC(C)C)CC[C@@H]23)C[C@@H](O)C[C@@H]1O [ALFACALCIDOL] | Not Active | Not Active | Not Active | Not Active | Not Active | Not Active | Not Active | Not Active | Not Active | – | –
9 | CCCCCC[C@H]1C(=O)O[C@H](C)[C@H](NC(=O)c2cccc(NC=O)c2O)C(=O)O[C@@H](C)[C@@H]1OC(=O)CC(C)C [ANTIMYCIN A] | Not Active | Not Active | Not Active | Not Active | Not Active | Not Active | Not Active | Not Active | Not Active | – | –
10 | C[C@@H]1CC[C@H]2[C@@H](C)C(=O)O[C@@H]3O[C@@]4(C)CC[C@@H]1[C@]32OO4 [ARTEMISININ] | Not Active | Not Active | Not Active | Not Active | – | – | Not Active | Not Active | Not Active | – | –
11 | CC(C(=O)O)c1ccc(-c2ccccc2)c(F)c1 (stereo not given) [FLURBIPROFEN] | Not Active | Not Active | Not Active | Not Active | Not Active | Not Active | – | Not Active | Not Active | – | –
12 | Cc1cn[nH]c1 [FOMEPIZOLE] | Not Active | Not Active | Not Active | Not Active | – | – | Not Active | Not Active | Not Active | – | –
13 | Cc1cnc(C(=O)NCCc2ccc(S(=O)(=O)NC(=O)NC3CCCCC3)cc2)cn1 [GLIPIZIDE] | Not Active | Not Active | Not Active | Not Active | – | – | Not Active | Not Active | Not Active | – | –
14 | C/C=C\c1ccc(O)c(OC)c1 [ISOEUGENOL] | Not Active | Not Active | Not Active | Not Active | – | – | Not Active | Not Active | Not Active | – | –
